{
  "source": "PubChem BioAssay (NCI)",
  "test_in_all_cases": "NCI tumour cell line growth inhibition, 48 h",
  "key": {"[1]": {"system": "HCT-15 colon"}, "[2]": {"system": "M14 melanoma"}, "[3]": {"system": "SK-OV-3 ovarian"}, "[4]": {"system": "MCF7 breast"}, "[5]": {"system": "SK-MEL-28 melanoma"}, "[6]": {"system": "SF-295 CNS"}, "[7]": {"system": "UACC-62 melanoma"}, "[8]": {"system": "BT-549 breast"}, "[9]": {"system": "CCRF-CEM leukemia"}, "[10]": {"system": "T-47D breast"}, "[11]": {"system": "SW-620 colon"}, "[12]": {"system": "U251 CNS"}, "[13]": {"system": "OVCAR-4 ovarian"}, "[14]": {"system": "KM12 colon"}, "[15]": {"system": "SF-268 CNS"}, "[16]": {"system": "A549 NSCLC"}, "[17]": {"system": "NCI-H23 lung"}, "[18]": {"system": "DU-145 prostate"}, "[19]": {"system": "SN12C renal"}, "[20]": {"system": "NCI-H460 lung"}, "[21]": {"system": "OVCAR-3 ovarian"}, "[22]": {"system": "OVCAR-8 ovarian"}, "[23]": {"system": "UO-31 renal"}, "[24]": {"system": "SNB-19 CNS"}, "[25]": {"system": "SF-539 CNS"}, "[26]": {"system": "HOP-92 NSCLC"}, "[27]": {"system": "NCI-H522 lung"}, "[28]": {"system": "HCC-2998 colon"}, "[29]": {"system": "TK-10 renal"}, "[30]": {"system": "ACHN renal"}, "[31]": {"system": "MDA-MB-435"}, "[32]": {"system": "HT29 colon"}, "[33]": {"system": "SK-MEL-5 melanoma"}, "[34]": {"system": "RPMI-8226 leukemia"}, "[35]": {"system": "HCT-116 colon"}, "[36]": {"system": "LOX IMVI melanoma"}, "[37]": {"system": "NCI/ADR-RES ovarian"}, "[38]": {"system": "CAKI-1 renal"}, "[39]": {"system": "MOLT-4 leukemia"}, "[40]": {"system": "EKVX NSCLC"}, "[41]": {"system": "HOP-62 NSCLC"}, "[42]": {"system": "SK-MEL-2 melanoma"}, "[43]": {"system": "MDA-MB-231 breast"}, "[44]": {"system": "786-0 renal"}, "[45]": {"system": "PC-3 prostate"}, "[46]": {"system": "K-562 leukemia"}, "[47]": {"system": "SNB-75 CNS"}},
  "note": "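Following 48 hours of exposure in 96-well plates, responses at five concentrations were used to interpolate endpoints linearly. Abbreviation: GI50, concentration required for 50% inhibition of growth. Definition used: TGI = concentration required for complete inhibition of growth.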",
  "data": [
    {"smiles": "[N-]=[N+]=NCCCn1c2c(c3cc4c(cc3c1=O)OCO4)C(=O)c1ccccc1-2", "values": [
      {"measurement": "GI50", "setting": "[1]", "value": "> 100", "unit": "µM"},
      {"measurement": "TGI", "setting": "[1]", "value": "> 100", "unit": "µM"},
      {"measurement": "GI50", "setting": "[2]", "value": 43, "unit": "µM"},
      {"measurement": "TGI", "setting": "[2]", "value": "> 100", "unit": "µM"},
      {"measurement": "GI50", "setting": "[3]", "value": "> 100", "unit": "µM"},
      {"measurement": "TGI", "setting": "[3]", "value": "> 100", "unit": "µM"},
      {"measurement": "GI50", "setting": "[4]", "value": 7.5, "unit": "µM"},
      {"measurement": "TGI", "setting": "[4]", "value": "> 100", "unit": "µM"},
      {"measurement": "GI50", "setting": "[5]", "value": "> 100", "unit": "µM"},
      {"measurement": "TGI", "setting": "[5]", "value": "> 100", "unit": "µM"},
      {"measurement": "GI50", "setting": "[6]", "value": 32.4, "unit": "µM"},
      {"measurement": "TGI", "setting": "[6]", "value": "> 100", "unit": "µM"},
      {"measurement": "GI50", "setting": "[7]", "value": 87.3, "unit": "µM"},
      {"measurement": "TGI", "setting": "[7]", "value": "> 100", "unit": "µM"},
      {"measurement": "GI50", "setting": "[8]", "value": "> 100", "unit": "µM"},
      {"measurement": "TGI", "setting": "[8]", "value": "> 100", "unit": "µM"},
      {"measurement": "GI50", "setting": "[9]", "value": 39.2, "unit": "µM"},
      {"measurement": "TGI", "setting": "[9]", "value": "> 100", "unit": "µM"},
      {"measurement": "GI50", "setting": "[10]", "value": "> 100", "unit": "µM"},
      {"measurement": "TGI", "setting": "[10]", "value": "> 100", "unit": "µM"},
      {"measurement": "GI50", "setting": "[11]", "value": "> 100", "unit": "µM"},
      {"measurement": "TGI", "setting": "[11]", "value": "> 100", "unit": "µM"},
      {"measurement": "GI50", "setting": "[12]", "value": "> 100", "unit": "µM"},
      {"measurement": "TGI", "setting": "[12]", "value": "> 100", "unit": "µM"},
      {"measurement": "GI50", "setting": "[13]", "value": "> 100", "unit": "µM"},
      {"measurement": "TGI", "setting": "[13]", "value": "> 100", "unit": "µM"},
      {"measurement": "GI50", "setting": "[14]", "value": "> 100", "unit": "µM"},
      {"measurement": "TGI", "setting": "[14]", "value": "> 100", "unit": "µM"},
      {"measurement": "GI50", "setting": "[15]", "value": "> 100", "unit": "µM"},
      {"measurement": "TGI", "setting": "[15]", "value": "> 100", "unit": "µM"},
      {"measurement": "GI50", "setting": "[16]", "value": 93.5, "unit": "µM"},
      {"measurement": "TGI", "setting": "[16]", "value": "> 100", "unit": "µM"},
      {"measurement": "GI50", "setting": "[17]", "value": 42.8, "unit": "µM"},
      {"measurement": "TGI", "setting": "[17]", "value": "> 100", "unit": "µM"},
      {"measurement": "GI50", "setting": "[18]", "value": 17.5, "unit": "µM"},
      {"measurement": "TGI", "setting": "[18]", "value": "> 100", "unit": "µM"},
      {"measurement": "GI50", "setting": "[19]", "value": "> 100", "unit": "µM"},
      {"measurement": "TGI", "setting": "[19]", "value": "> 100", "unit": "µM"},
      {"measurement": "GI50", "setting": "[20]", "value": 62.8, "unit": "µM"},
      {"measurement": "TGI", "setting": "[20]", "value": "> 100", "unit": "µM"},
      {"measurement": "GI50", "setting": "[21]", "value": 71.9, "unit": "µM"},
      {"measurement": "TGI", "setting": "[21]", "value": "> 100", "unit": "µM"},
      {"measurement": "GI50", "setting": "[22]", "value": 21.6, "unit": "µM"},
      {"measurement": "TGI", "setting": "[22]", "value": 87.3, "unit": "µM"},
      {"measurement": "GI50", "setting": "[23]", "value": "> 100", "unit": "µM"},
      {"measurement": "TGI", "setting": "[23]", "value": "> 100", "unit": "µM"},
      {"measurement": "GI50", "setting": "[24]", "value": "> 100", "unit": "µM"},
      {"measurement": "TGI", "setting": "[24]", "value": "> 100", "unit": "µM"},
      {"measurement": "GI50", "setting": "[25]", "value": "> 100", "unit": "µM"},
      {"measurement": "TGI", "setting": "[25]", "value": "> 100", "unit": "µM"},
      {"measurement": "GI50", "setting": "[26]", "value": 64.2, "unit": "µM"},
      {"measurement": "TGI", "setting": "[26]", "value": "> 100", "unit": "µM"},
      {"measurement": "GI50", "setting": "[27]", "value": 75, "unit": "µM"},
      {"measurement": "TGI", "setting": "[27]", "value": "> 100", "unit": "µM"},
      {"measurement": "GI50", "setting": "[28]", "value": "> 100", "unit": "µM"},
      {"measurement": "TGI", "setting": "[28]", "value": "> 100", "unit": "µM"},
      {"measurement": "GI50", "setting": "[29]", "value": 42.6, "unit": "µM"},
      {"measurement": "TGI", "setting": "[29]", "value": "> 100", "unit": "µM"},
      {"measurement": "GI50", "setting": "[30]", "value": 13.1, "unit": "µM"},
      {"measurement": "TGI", "setting": "[30]", "value": 86, "unit": "µM"},
      {"measurement": "GI50", "setting": "[31]", "value": 10.3, "unit": "µM"},
      {"measurement": "TGI", "setting": "[31]", "value": "> 100", "unit": "µM"},
      {"measurement": "GI50", "setting": "[32]", "value": "> 100", "unit": "µM"},
      {"measurement": "TGI", "setting": "[32]", "value": "> 100", "unit": "µM"},
      {"measurement": "GI50", "setting": "[33]", "value": 3.52, "unit": "µM"},
      {"measurement": "TGI", "setting": "[33]", "value": 31.3, "unit": "µM"},
      {"measurement": "GI50", "setting": "[34]", "value": "> 100", "unit": "µM"},
      {"measurement": "TGI", "setting": "[34]", "value": "> 100", "unit": "µM"},
      {"measurement": "GI50", "setting": "[35]", "value": 40.1, "unit": "µM"},
      {"measurement": "TGI", "setting": "[35]", "value": "> 100", "unit": "µM"},
      {"measurement": "GI50", "setting": "[36]", "value": 13.5, "unit": "µM"},
      {"measurement": "TGI", "setting": "[36]", "value": "> 100", "unit": "µM"},
      {"measurement": "GI50", "setting": "[37]", "value": "> 100", "unit": "µM"},
      {"measurement": "TGI", "setting": "[37]", "value": "> 100", "unit": "µM"},
      {"measurement": "GI50", "setting": "[38]", "value": 89.1, "unit": "µM"},
      {"measurement": "TGI", "setting": "[38]", "value": "> 100", "unit": "µM"},
      {"measurement": "GI50", "setting": "[39]", "value": 0.0905, "unit": "µM"},
      {"measurement": "TGI", "setting": "[39]", "value": 13.7, "unit": "µM"},
      {"measurement": "GI50", "setting": "[40]", "value": "> 100", "unit": "µM"},
      {"measurement": "TGI", "setting": "[40]", "value": "> 100", "unit": "µM"},
      {"measurement": "GI50", "setting": "[41]", "value": 39, "unit": "µM"},
      {"measurement": "TGI", "setting": "[41]", "value": "> 100", "unit": "µM"},
      {"measurement": "GI50", "setting": "[42]", "value": 91.1, "unit": "µM"},
      {"measurement": "TGI", "setting": "[42]", "value": "> 100", "unit": "µM"},
      {"measurement": "GI50", "setting": "[43]", "value": "> 100", "unit": "µM"},
      {"measurement": "TGI", "setting": "[43]", "value": "> 100", "unit": "µM"},
      {"measurement": "GI50", "setting": "[44]", "value": 67.7, "unit": "µM"},
      {"measurement": "TGI", "setting": "[44]", "value": "> 100", "unit": "µM"},
      {"measurement": "GI50", "setting": "[45]", "value": "> 100", "unit": "µM"},
      {"measurement": "TGI", "setting": "[45]", "value": "> 100", "unit": "µM"},
      {"measurement": "GI50", "setting": "[46]", "value": 28.7, "unit": "µM"},
      {"measurement": "TGI", "setting": "[46]", "value": "> 100", "unit": "µM"},
      {"measurement": "GI50", "setting": "[47]", "value": 72.8, "unit": "µM"},
      {"measurement": "TGI", "setting": "[47]", "value": "> 100", "unit": "µM"}
    ]}
  ]
}
